Common to all, as to assay type: cell-based
For one experiment, the target named is T1, human TLR9 (Homo sapiens, UniProt Q9NR96).
T1 construct: host or cells: HEK-Blue cells
T1 sequence (Q9NR96 26-1032): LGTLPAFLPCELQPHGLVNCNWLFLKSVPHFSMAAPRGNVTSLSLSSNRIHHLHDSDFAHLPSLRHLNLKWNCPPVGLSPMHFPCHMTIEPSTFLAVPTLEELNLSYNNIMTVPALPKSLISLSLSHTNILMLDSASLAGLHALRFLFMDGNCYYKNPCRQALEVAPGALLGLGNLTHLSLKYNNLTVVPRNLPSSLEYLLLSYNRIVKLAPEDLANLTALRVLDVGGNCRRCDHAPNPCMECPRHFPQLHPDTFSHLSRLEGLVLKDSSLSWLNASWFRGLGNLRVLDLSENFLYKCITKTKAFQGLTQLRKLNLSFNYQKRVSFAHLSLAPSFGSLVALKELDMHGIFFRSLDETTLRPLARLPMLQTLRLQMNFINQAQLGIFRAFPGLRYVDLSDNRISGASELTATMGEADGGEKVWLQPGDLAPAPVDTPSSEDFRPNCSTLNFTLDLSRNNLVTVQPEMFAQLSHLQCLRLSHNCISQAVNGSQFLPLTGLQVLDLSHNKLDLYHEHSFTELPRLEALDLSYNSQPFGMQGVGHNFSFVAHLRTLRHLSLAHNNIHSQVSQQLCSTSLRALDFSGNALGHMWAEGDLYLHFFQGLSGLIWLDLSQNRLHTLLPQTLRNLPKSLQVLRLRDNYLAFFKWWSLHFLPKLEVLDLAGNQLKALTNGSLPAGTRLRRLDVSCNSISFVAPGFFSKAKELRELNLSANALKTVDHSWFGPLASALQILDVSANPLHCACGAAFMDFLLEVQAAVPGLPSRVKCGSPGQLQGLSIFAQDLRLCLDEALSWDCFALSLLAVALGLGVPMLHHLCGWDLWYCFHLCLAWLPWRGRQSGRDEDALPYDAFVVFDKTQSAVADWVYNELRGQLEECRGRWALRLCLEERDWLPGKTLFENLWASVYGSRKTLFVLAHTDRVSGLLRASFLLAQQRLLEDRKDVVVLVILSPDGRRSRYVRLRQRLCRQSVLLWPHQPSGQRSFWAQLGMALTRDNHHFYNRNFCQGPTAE
The experiment in a line: TLR9 inhibition reporter assay (HEK-Blue SEAP). The settings on record: HEK-Blue cells overexpressing human TLR9, stimulated with ODN2006 5 nM, 22 hour incubation. In outline:
(§1)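 HEK-Blue cells overexpressing the receptor, with an NF-κB/AP-1-driven SEAP reporter, were pre-treated with compound (0.05 nM to 50 μM) for 30 min at room temperature. Stimulation used gardiquimod 7.5 μM (TLR7), R848 15.9 μM (TLR8) or ODN2006 5 nM (TLR9), followed by 22 h at 37 °C.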
(Reporter assays use an easily measured gene product as a stand-in for the process of interest.)

In a further experiment the target is T2, human TLR7 (Homo sapiens, UniProt Q9NYK1).
T2 construct: host or cells: HEK-Blue cells
T2 sequence (Q9NYK1 27-1049): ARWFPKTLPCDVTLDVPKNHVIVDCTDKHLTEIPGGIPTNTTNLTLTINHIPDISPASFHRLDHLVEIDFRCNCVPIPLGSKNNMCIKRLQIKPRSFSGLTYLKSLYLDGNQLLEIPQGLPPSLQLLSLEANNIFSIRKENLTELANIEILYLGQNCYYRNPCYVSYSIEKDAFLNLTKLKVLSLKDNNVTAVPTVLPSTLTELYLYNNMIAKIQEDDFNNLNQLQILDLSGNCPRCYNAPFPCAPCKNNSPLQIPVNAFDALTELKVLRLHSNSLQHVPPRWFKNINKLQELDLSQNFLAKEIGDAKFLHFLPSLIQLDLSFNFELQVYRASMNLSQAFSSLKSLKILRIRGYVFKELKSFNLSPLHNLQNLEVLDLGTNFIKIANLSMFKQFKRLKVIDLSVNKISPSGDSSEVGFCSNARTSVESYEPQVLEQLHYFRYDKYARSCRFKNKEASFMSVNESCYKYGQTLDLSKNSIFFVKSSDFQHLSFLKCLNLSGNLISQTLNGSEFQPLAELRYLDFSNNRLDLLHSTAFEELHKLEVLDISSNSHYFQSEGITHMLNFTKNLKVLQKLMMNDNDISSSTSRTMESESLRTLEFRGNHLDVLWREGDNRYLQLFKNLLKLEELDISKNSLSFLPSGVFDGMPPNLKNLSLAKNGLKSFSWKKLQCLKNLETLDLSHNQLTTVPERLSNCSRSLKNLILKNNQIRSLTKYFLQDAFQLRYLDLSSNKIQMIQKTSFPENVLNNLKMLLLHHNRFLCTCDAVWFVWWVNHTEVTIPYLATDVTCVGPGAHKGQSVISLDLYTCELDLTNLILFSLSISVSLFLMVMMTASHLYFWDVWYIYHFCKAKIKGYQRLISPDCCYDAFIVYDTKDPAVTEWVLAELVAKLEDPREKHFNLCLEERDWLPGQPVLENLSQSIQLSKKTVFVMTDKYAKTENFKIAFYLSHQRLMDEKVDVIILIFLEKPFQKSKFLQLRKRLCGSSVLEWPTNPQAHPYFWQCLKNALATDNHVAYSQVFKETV
The experiment can be described thus: TLR7 inhibition reporter assay (HEK-Blue SEAP). The following applies: HEK-Blue cells overexpressing human TLR7, stimulated with gardiquimod 7.5 μM, 22 hour incubation. In outline: as §1

Another experiment addresses T3, human TLR8 (Homo sapiens, UniProt Q9NR97).
T3 construct: host or cells: HEK-Blue cells
T3 sequence (Q9NR97 27-1041): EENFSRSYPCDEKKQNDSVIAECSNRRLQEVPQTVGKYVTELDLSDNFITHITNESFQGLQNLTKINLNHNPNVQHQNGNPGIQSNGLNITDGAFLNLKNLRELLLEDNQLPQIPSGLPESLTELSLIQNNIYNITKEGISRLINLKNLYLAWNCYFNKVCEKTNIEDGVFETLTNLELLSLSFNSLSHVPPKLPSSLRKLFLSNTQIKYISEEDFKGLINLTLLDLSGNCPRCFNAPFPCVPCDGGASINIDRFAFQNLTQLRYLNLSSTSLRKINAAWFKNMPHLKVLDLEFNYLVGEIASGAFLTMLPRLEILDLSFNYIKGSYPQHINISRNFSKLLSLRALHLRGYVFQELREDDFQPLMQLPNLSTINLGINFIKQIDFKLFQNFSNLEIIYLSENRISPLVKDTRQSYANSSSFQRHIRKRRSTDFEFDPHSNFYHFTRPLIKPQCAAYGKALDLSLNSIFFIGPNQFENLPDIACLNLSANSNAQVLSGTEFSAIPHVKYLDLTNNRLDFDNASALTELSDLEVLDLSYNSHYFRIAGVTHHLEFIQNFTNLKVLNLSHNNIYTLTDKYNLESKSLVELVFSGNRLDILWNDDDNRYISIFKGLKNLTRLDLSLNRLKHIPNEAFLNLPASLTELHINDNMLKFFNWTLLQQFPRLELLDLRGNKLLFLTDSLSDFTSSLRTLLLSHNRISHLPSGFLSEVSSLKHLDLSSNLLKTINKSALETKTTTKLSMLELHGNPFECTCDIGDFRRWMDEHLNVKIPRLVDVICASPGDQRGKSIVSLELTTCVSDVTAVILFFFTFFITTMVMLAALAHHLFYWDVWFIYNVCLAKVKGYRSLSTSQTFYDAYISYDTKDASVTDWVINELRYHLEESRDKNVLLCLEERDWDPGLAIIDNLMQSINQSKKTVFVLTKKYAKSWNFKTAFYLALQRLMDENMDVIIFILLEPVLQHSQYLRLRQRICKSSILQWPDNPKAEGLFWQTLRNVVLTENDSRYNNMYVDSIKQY
The experiment in a line: TLR8 inhibition reporter assay (HEK-Blue SEAP). The following applies: HEK-Blue cells overexpressing human TLR8, stimulated with R848 15.9 μM, 22 hour incubation. In outline:
as §1

Each structure is given as a SMILES string.

For `Cc1cc(-c2cc3[nH]nc(C4CCC(N5CC(OC(C)C)C5)CC4)c3cc2C(C)C)cn2ncnc12` (single isomer, unassigned) [Example 162, 6-(3-(4-(3-isopropoxyazetidin-1-yl)cyclohexyl)-5-isopropyl-1H-indazol-6-yl)-8-methyl-[1,2,4]triazolo[1,5-a]pyridine], the IC50 against human TLR9 amounted to 8540 nM; against human TLR7, 1.5 nM; against human TLR8, 0.7 nM.
The corresponding values for `CCc1cc2c(C3CCC(NCCS(C)(=O)=O)CC3)n[nH]c2cc1-c1cc(C)c2ncnn2c1` (single isomer, unassigned) [Example 100, 4-(5-ethyl-6-(8-methyl-[1,2,4]triazolo[1,5-a]pyridin-6-yl)-1H-indazol-3-yl)-N-(2-(methylsulfonyl)ethyl)cyclohexan-1-amine] are 17500 nM, 7.5 nM and 0.2 nM.
The corresponding values for `Cc1cc(-c2ccc3c(C4CCC(N(C)C)CC4)c[nH]c3c2)cn2ncnc12` (single isomer, unassigned) [Example 15, N,N-dimethyl-4-(6-(8-methyl-[1,2,4]triazolo[1,5-a]pyridin-6-yl)-1H-indol-3-yl) cyclohexan-1-amine] are 1130 nM, 29.4 nM and 25.9 nM.

Broadly, the IC50 is the concentration that inhibits the measured activity by half. Read a high IC50 as lower potency.

The values are drawn from patent US12172995B2, “Substituted indole and indazole compounds” (BRISTOL-MYERS SQUIBB COMPANY, priority 2018, dated 2024).
